Measured values as given in ChEMBL document CHEMBL1201861, “Genomics of Drug Sensitity in Cancer screening data, Wellcome Trust Sanger Institute”.

Legend:
COR-L105 = experiment: cells; format: functional, cell-based; details: Homo sapiens
Description: SANGER: Inhibition of human COR-L105 cell growth in a cell viability assay.

COR-L279 = experiment: SANGER: Inhibition of human COR-L279 cell growth in a cell viability assay.; format: functional, cell-based; details: Homo sapiens, COR-L279
CPC-N = experiment: cells; format: functional, cell-based, Homo sapiens; details: Homo sapiens, CPC-N
Description: SANGER: Inhibition of human CPC-N cell growth in a cell viability assay.

ChaGo-K-1 = experiment: cells; format: functional, cell-based; details: Homo sapiens
Description: SANGER: Inhibition of human ChaGo-K-1 cell growth in a cell viability assay.

D-392MG = experiment: cells; format: functional, cell-based; details: Homo sapiens
D-542MG = experiment: cells; format: functional, cell-based; details: Homo sapiens
Description: SANGER: Inhibition of human D-542MG cell growth in a cell viability assay.

Daoy = experiment: cells; format: functional, cell-based; details: Homo sapiens
Description: SANGER: Inhibition of human Daoy cell growth in a cell viability assay.

ECC4 = experiment: cells; format: functional, cell-based, Homo sapiens; details: Homo sapiens, ECC4
Description: SANGER: Inhibition of human ECC4 cell growth in a cell viability assay.

ESS-1 = experiment: cells; format: functional, cell-based; details: Homo sapiens
Description: SANGER: Inhibition of human ESS-1 cell growth in a cell viability assay.

EVSA-T = experiment: cells; format: functional, cell-based, Homo sapiens; details: Homo sapiens, EVSA-T
Description: SANGER: Inhibition of human EVSA-T cell growth in a cell viability assay.

G-402 = experiment: cells; format: functional, cell-based; details: Homo sapiens
Description: SANGER: Inhibition of human G-402 cell growth in a cell viability assay.

GDM-1 = experiment: cells; format: functional, cell-based, Homo sapiens; details: Homo sapiens, GDM-1; read-out: IC50
Description: SANGER: Inhibition of human GDM-1 cell growth in a cell viability assay.

GMS-10 = experiment: cells; format: functional, cell-based; details: Homo sapiens
Description: SANGER: Inhibition of human GMS-10 cell growth in a cell viability assay.

GP5d = experiment: cells; format: functional, cell-based; details: Homo sapiens
Description: SANGER: Inhibition of human GP5d cell growth in a cell viability assay.

HCC1806 = experiment: cells; format: functional, cell-based; details: Homo sapiens
Description: SANGER: Inhibition of human HCC1806 cell growth in a cell viability assay.

HLE = experiment: cells; format: functional, cell-based; details: Homo sapiens
Description: SANGER: Inhibition of human HLE cell growth in a cell viability assay.

HT1197 = experiment: cells; format: functional, cell-based, HT-1197; details: Homo sapiens
Description: SANGER: Inhibition of human HT-1197 cell growth in a cell viability assay.

IST-SL2 = experiment: cells; format: functional, cell-based, Homo sapiens; details: Homo sapiens, IST-SL2
Description: SANGER: Inhibition of human IST-SL2 cell growth in a cell viability assay.

KYSE-450 = experiment: cells; format: functional, cell-based; details: Homo sapiens
Description: SANGER: Inhibition of human KYSE-450 cell growth in a cell viability assay.

LB647-SCLC = experiment: cells; format: functional, cell-based, Homo sapiens; details: Homo sapiens, LB647-SCLC
Description: SANGER: Inhibition of human LB647-SCLC cell growth in a cell viability assay.

LCLC-103H cell line = experiment: cells; format: functional, cell-based; details: Homo sapiens
Description: SANGER: Inhibition of human LCLC-103H cell growth in a cell viability assay.

M14 = experiment: cells; format: functional, cell-based; details: Homo sapiens
Description: SANGER: Inhibition of human M14 cell growth in a cell viability assay.

MFE-280 = experiment: cells; format: functional, cell-based; details: Homo sapiens
Description: SANGER: Inhibition of human MFE-280 cell growth in a cell viability assay.

MHH-ES-1 = experiment: cells; format: functional, cell-based; details: Homo sapiens
Description: SANGER: Inhibition of human MHH-ES-1 cell growth in a cell viability assay.

NCI-H1436 = experiment: cells; format: functional, cell-based, Homo sapiens; details: Homo sapiens, NCI-H1436
Description: SANGER: Inhibition of human NCI-H1436 cell growth in a cell viability assay.

NCI-H1437 = experiment: cells; format: functional, cell-based; details: Homo sapiens
Description: SANGER: Inhibition of human NCI-H1437 cell growth in a cell viability assay.

NCI-H1755 = experiment: cells; format: functional, cell-based; details: Homo sapiens
Description: SANGER: Inhibition of human NCI-H1755 cell growth in a cell viability assay.

NCI-H2052 = experiment: cells; format: functional, cell-based; details: Homo sapiens
Description: SANGER: Inhibition of human NCI-H2052 cell growth in a cell viability assay.

NCI-H2122 = experiment: cells; format: functional, cell-based; details: Homo sapiens
Description: SANGER: Inhibition of human NCI-H2122 cell growth in a cell viability assay.

NCI-H2170 = experiment: cells; format: functional, cell-based; details: Homo sapiens
Description: SANGER: Inhibition of human NCI-H2170 cell growth in a cell viability assay.

NCI-H2452 = experiment: cells; format: functional, cell-based; details: Homo sapiens
Description: SANGER: Inhibition of human NCI-H2452 cell growth in a cell viability assay.

NCI-H345 = experiment: cells; format: functional, cell-based, Homo sapiens; details: Homo sapiens, NCI-H345
Description: SANGER: Inhibition of human NCI-H345 cell growth in a cell viability assay.

NCI-H650 = experiment: cells; format: functional, cell-based; details: Homo sapiens
Description: SANGER: Inhibition of human NCI-H650 cell growth in a cell viability assay.

NCI-H889 = experiment: cells; format: functional, cell-based, Homo sapiens; details: Homo sapiens, NCI-H889
Description: SANGER: Inhibition of human NCI-H889 cell growth in a cell viability assay.

RL = experiment: cells; format: functional, cell-based, Homo sapiens; details: Homo sapiens, RL
Description: SANGER: Inhibition of human RL cell growth in a cell viability assay.

RMG-I = experiment: cells; format: functional, cell-based; details: Homo sapiens
Description: SANGER: Inhibition of human RMG-I cell growth in a cell viability assay.

SCC-3 = experiment: cells; format: functional, cell-based, Homo sapiens; details: Homo sapiens, SCC-3
Description: SANGER: Inhibition of human SCC-3 cell growth in a cell viability assay.

SIG-M5 = experiment: cells; format: functional, cell-based, Homo sapiens; details: Homo sapiens, SIG-M5
Description: SANGER: Inhibition of human SIG-M5 cell growth in a cell viability assay.

SU-DHL-1 = experiment: SANGER: Inhibition of human SU-DHL-1 cell growth in a cell viability assay.; format: functional, cell-based; details: Homo sapiens, SU-DHL-1
SUP-T1 = experiment: cells; format: functional, cell-based, Homo sapiens; details: Homo sapiens, SUP-T1
Description: SANGER: Inhibition of human SUP-T1 cell growth in a cell viability assay.

SW1573 = experiment: cells; format: functional, cell-based; details: Homo sapiens
Description: SANGER: Inhibition of human SW1573 cell growth in a cell viability assay.

SW1783 = experiment: cells; format: functional, cell-based; details: Homo sapiens
Description: SANGER: Inhibition of human SW1783 cell growth in a cell viability assay.

SW756 = experiment: cells; format: functional, cell-based; details: Homo sapiens
Description: SANGER: Inhibition of human SW756 cell growth in a cell viability assay.

T47D = experiment: cells; format: functional, cell-based; details: Homo sapiens
Description: SANGER: Inhibition of human T47D cell growth in a cell viability assay.

5637 = experiment: cells; format: functional, cell-based; details: Homo sapiens
Description: SANGER: Inhibition of human 5637 cell growth in a cell viability assay.

A673 = experiment: cells; format: functional, cell-based; details: Homo sapiens
Description: SANGER: Inhibition of human A673 cell growth in a cell viability assay.

ACHN = experiment: cells; format: functional, cell-based; details: Homo sapiens
Description: SANGER: Inhibition of human ACHN cell growth in a cell viability assay.

ASPC1 = experiment: cells; format: functional, cell-based; details: Homo sapiens
Description: SANGER: Inhibition of human AsPC-1 cell growth in a cell viability assay.

BFTC-905 = experiment: cells; format: functional, cell-based; details: Homo sapiens
Description: SANGER: Inhibition of human BFTC-905 cell growth in a cell viability assay.

BXPC-3 = experiment: cells; format: functional, cell-based; details: Homo sapiens
Description: SANGER: Inhibition of human BxPC-3 cell growth in a cell viability assay.

CAL-51 = experiment: cells; format: functional, cell-based; details: Homo sapiens
Description: SANGER: Inhibition of human CAL-51 cell growth in a cell viability assay.

CAL-62 = experiment: cells; format: functional, cell-based; details: Homo sapiens
Description: SANGER: Inhibition of human CAL-62 cell growth in a cell viability assay.

CAL-85-1 = experiment: cells; format: functional, cell-based; details: Homo sapiens
Description: SANGER: Inhibition of human CAL-85-1 cell growth in a cell viability assay.

THP-1 = experiment: cells; format: functional, cell-based, Homo sapiens; details: Homo sapiens, THP-1
Description: SANGER: Inhibition of human THP-1 cell growth in a cell viability assay.

U2OS = experiment: cells; format: functional, cell-based, U-2-OS; details: Homo sapiens
Description: SANGER: Inhibition of human U-2-OS cell growth in a cell viability assay.

UACC-812 = experiment: cells; format: functional, cell-based; details: Homo sapiens
Description: SANGER: Inhibition of human UACC-812 cell growth in a cell viability assay.

YAPC = experiment: cells; format: functional, cell-based; details: Homo sapiens
Description: SANGER: Inhibition of human YAPC cell growth in a cell viability assay.

CAPAN-1 = experiment: cells; format: functional, cell-based; details: Homo sapiens
Description: SANGER: Inhibition of human CAPAN-1 cell growth in a cell viability assay.

## COc1ccc(-c2cc3nccn3c(Nc3ncccc3C(N)=O)n2)cc1OC
COR-L105
  IC50: 1.14 µM
COR-L279
  IC50: 4.2 µM
CPC-N
  IC50: > 8 µM
ChaGo-K-1
  IC50: > 8 µM
D-392MG
  IC50: > 8 µM
D-542MG
  IC50: > 8 µM
Daoy
  IC50: > 8 µM
ECC4
  IC50: > 8 µM
ESS-1
  IC50: 4.08 µM
EVSA-T
  IC50: > 8 µM
G-402
  IC50: 6.9 µM
GDM-1
  IC50: 0.683 µM
GMS-10
  IC50: > 8 µM
GP5d
  IC50: > 8 µM
HCC1806
  IC50: > 8 µM
HLE
  IC50: 3.23 µM
HT1197
  IC50: > 8 µM
IST-SL2
  IC50: 1.07 µM
KYSE-450
  IC50: 2.32 µM
LB647-SCLC
  IC50: > 8 µM
LCLC-103H cell line
  IC50: 3.08 µM
M14
  IC50: > 8 µM
MFE-280
  IC50: > 8 µM
MHH-ES-1
  IC50: > 8 µM
NCI-H1436
  IC50: > 8 µM
NCI-H1437
  IC50: 1.8 µM
NCI-H1755
  IC50: > 8 µM
NCI-H2052
  IC50: > 8 µM
NCI-H2122
  IC50: 1.28 µM
NCI-H2170
  IC50: 5.35 µM
NCI-H2452
  IC50: > 8 µM
NCI-H345
  IC50: > 8 µM
NCI-H650
  IC50: > 8 µM
NCI-H889
  IC50: > 8 µM
RL
  IC50: > 8 µM
RMG-I
  IC50: > 8 µM
SCC-3
  IC50: 7.5 µM
SIG-M5
  IC50: 0.848 µM
SU-DHL-1
  IC50: > 8 µM
SUP-T1
  IC50: 2.1 µM
SW1573
  IC50: > 8 µM
SW1783
  IC50: > 8 µM
SW756
  IC50: > 8 µM
T47D
  IC50: > 8 µM
5637
  IC50: > 8 µM
A673
  IC50: > 8 µM
ACHN
  IC50: 1.38 µM
ASPC1
  IC50: > 8 µM
BFTC-905
  IC50: 2.29 µM
BXPC-3
  IC50: 2.86 µM
CAL-51
  IC50: 3.02 µM
CAL-62
  IC50: > 8 µM
CAL-85-1
  IC50: 3.33 µM
THP-1
  IC50: > 8 µM
U2OS
  IC50: > 8 µM
UACC-812
  IC50: > 8 µM
YAPC
  IC50: > 8 µM
CAPAN-1
  IC50: 4.16 µM

## COC(=O)[C@H](CCSC)NC(=O)c1ccc(NC[C@@H](N)CS)cc1-c1ccccc1
COR-L105
  IC50: > 1.02 µM
COR-L279
  IC50: > 1.02 µM
CPC-N
  IC50: > 1.02 µM
ChaGo-K-1
  IC50: > 1.02 µM
D-392MG
  IC50: > 1.02 µM
D-542MG
  IC50: > 1.02 µM
Daoy
  IC50: > 1.02 µM
ECC4
  IC50: > 1.02 µM
ESS-1
  IC50: > 1.02 µM
EVSA-T
  IC50: > 1.02 µM
G-402
  IC50: > 1.02 µM
GDM-1
  IC50: > 1.02 µM
GMS-10
  IC50: > 1.02 µM
GP5d
  IC50: > 1.02 µM
HCC1806
  IC50: > 1.02 µM
HLE
  IC50: > 1.02 µM
HT1197
  IC50: > 1.02 µM
IST-SL2
  IC50: > 1.02 µM
KYSE-450
  IC50: > 1.02 µM
LB647-SCLC
  IC50: > 1.02 µM
LCLC-103H cell line
  IC50: > 1.02 µM
M14
  IC50: > 1.02 µM
MFE-280
  IC50: > 1.02 µM
MHH-ES-1
  IC50: > 1.02 µM
NCI-H1436
  IC50: > 1.02 µM
NCI-H1437
  IC50: > 1.02 µM
NCI-H1755
  IC50: > 1.02 µM
NCI-H2052
  IC50: > 1.02 µM
NCI-H2122
  IC50: > 1.02 µM
NCI-H2170
  IC50: > 1.02 µM
NCI-H2452
  IC50: > 1.02 µM
NCI-H345
  IC50: > 1.02 µM
NCI-H650
  IC50: > 1.02 µM
NCI-H889
  IC50: > 1.02 µM
RL
  IC50: > 1.02 µM
RMG-I
  IC50: > 1.02 µM
SCC-3
  IC50: > 1.02 µM
SIG-M5
  IC50: > 1.02 µM
SU-DHL-1
  IC50: > 1.02 µM
SUP-T1
  IC50: > 1.02 µM
SW1573
  IC50: > 1.02 µM
SW1783
  IC50: > 1.02 µM
SW756
  IC50: > 1.02 µM
T47D
  IC50: > 1.02 µM
5637
  IC50: > 1.02 µM
A673
  IC50: > 1.02 µM
ACHN
  IC50: > 1.02 µM
ASPC1
  IC50: > 1.02 µM
BFTC-905
  IC50: > 1.02 µM
BXPC-3
  IC50: > 1.02 µM
CAL-51
  IC50: > 1.02 µM
CAL-62
  IC50: > 1.02 µM
CAL-85-1
  IC50: > 1.02 µM
THP-1
  IC50: > 1.02 µM
U2OS
  IC50: > 1.02 µM
UACC-812
  IC50: > 1.02 µM
YAPC
  IC50: > 1.02 µM
CAPAN-1
  IC50: > 1.02 µM

## CCCCCCCCCCCC1=C(O)C(=O)C=C(O)C1=O [EMBELIN]
COR-L105
  IC50: 22.3 µM
COR-L279
  IC50: > 32 µM
CPC-N
  IC50: > 32 µM
ChaGo-K-1
  IC50: 7.08 µM
D-392MG
  IC50: 16.6 µM
D-542MG
  IC50: 3.13 µM
Daoy
  IC50: 5.46 µM
ECC4
  IC50: 23.8 µM
ESS-1
  IC50: 9.42 µM
EVSA-T
  IC50: > 32 µM
G-402
  IC50: 11.3 µM
GDM-1
  IC50: 28 µM
GMS-10
  IC50: 23 µM
GP5d
  IC50: 8.6 µM
HCC1806
  IC50: > 32 µM
HLE
  IC50: 5.93 µM
HT1197
  IC50: 25.3 µM
IST-SL2
  IC50: > 32 µM
KYSE-450
  IC50: 17.7 µM
LB647-SCLC
  IC50: > 32 µM
LCLC-103H cell line
  IC50: 9.06 µM
M14
  IC50: 11 µM
MFE-280
  IC50: 15.7 µM
MHH-ES-1
  IC50: 15.8 µM
NCI-H1436
  IC50: > 32 µM
NCI-H1437
  IC50: 6.27 µM
NCI-H1755
  IC50: > 32 µM
NCI-H2052
  IC50: 8.53 µM
NCI-H2122
  IC50: 2.81 µM
NCI-H2170
  IC50: 12.1 µM
NCI-H2452
  IC50: > 32 µM
NCI-H345
  IC50: > 32 µM
NCI-H650
  IC50: 16.4 µM
NCI-H889
  IC50: > 32 µM
RL
  IC50: > 32 µM
RMG-I
  IC50: 9.24 µM
SCC-3
  IC50: > 32 µM
SIG-M5
  IC50: 1.31 µM
SU-DHL-1
  IC50: > 32 µM
SUP-T1
  IC50: 7.32 µM
SW1573
  IC50: > 32 µM
SW1783
  IC50: 10.1 µM
SW756
  IC50: > 32 µM
T47D
  IC50: > 32 µM
5637
  IC50: 13.2 µM
A673
  IC50: 12.6 µM
ACHN
  IC50: > 32 µM
ASPC1
  IC50: > 32 µM
BFTC-905
  IC50: 5.03 µM
BXPC-3
  IC50: 6.41 µM
CAL-51
  IC50: 5.37 µM
CAL-62
  IC50: 23.3 µM
CAL-85-1
  IC50: 7.81 µM
THP-1
  IC50: 29.8 µM
U2OS
  IC50: > 32 µM
UACC-812
  IC50: > 32 µM
YAPC
  IC50: > 32 µM
CAPAN-1
  IC50: 9.01 µM
